pEC50: −log10 of the molar value. Several values for one entry are separate records, joined by “and”; a condition that tells them apart may be missing. Identical values can stand only once.
Experiments:
[1] = system: Human diploid fibroblasts HCA; assay: Anti-aging activity: senescence-associated beta-galactosidase in human fibroblasts; format: cell-based; conditions: for Senescent Cells (%) HCA passage 25: passage 25, cells expressing senescence-associated beta-galactosidase; for Senescent Cells (%) HCA passage 50: passage 50, cells expressing senescence-associated beta-galactosidase; for Senescent Cells (%) HCA passage 80: passage 80, cells expressing senescence-associated beta-galactosidase
Protocol: In this example, effects of the compounds of this invention on the activity of a senescence biomarker senescence-associated β-galactosidase was studied. Human diploid fibroblasts HCA of various passage levels were used for this purpose. The tested compounds were added to the medium at each passage. After the incubation period, cells were washed with PBS and fixed with 2% formaldehyde and 0.2% glutaraldehyde in PBS. After another wash with PBS, they were incubated with the staining solution comprising potassium ferricyanide (5 mM), potassium ferrocyanide (5 mM), MgCl2 (2 mM), X-gal (5-bromo-4-chloro-3-indolyl-β-D-galactopyranoside) (1 mg/ml), in citric/phosphate buffer (pH 6.0) at 37° C. (without CO2) for at least 1 hour. Following the incubation period, the numbers of cells expressing senescence-associated β-galactosidase (blue cells) were counted using light microscope.

[2] = system: cytokinin-dependent tobacco callus Nicotiana tabacum L. cv. Wisconsin 38; assay: Tobacco callus biotest (plant cell division); format: cell-based; conditions: for Activity (%) [10^−5 mol · l^−1 K = 100%]: at the concentration with highest activity, relative to 10^−5 M kinetin
Protocol: The stimulatory effect of the newly prepared derivatives was tested in the calus biotest using cytokinin-dependent tobacco callus. Cytokinin-dependent tobacco callus Nicotiana tabacum L. cv. Wisconsin 38 was maintained at 25° C. in darkness on modified Murashige-Skoog medium, containing per 1 liter: 4 μmol of nicotinic acid, 2.4 μmol of pyridoxine hydrochloride, 1.2 μmol of thiamine, 26.6 μmol of glycine, 1.37 μmol of glutamine, 1.8 μmol of myo-inositol, 30 g of sucrose, 8 g of agar, 5.37 μmol of NAA and 0.5 μmol of 6-benzylaminopurine. Subcultivation was carried out every three weeks. Fourteen days before the bioassay, the callus tissue was transferred to the media without 6-benzylaminopurine. The biological activity was determined from the increase of the fresh callus weight after four weeks of cultivation. Five replicates were prepared for each concentration of the compound tested and the entire test was repeated twice. […] The compounds to be tested were dissolved in dimethylsulfoxide (DMSO) and the solution brought up to 10^−3 M with distilled water.
From the obtained data, the concentration with the highest activity was selected for each compound tested. Relative activity of the compound at this concentration was calculated (Table 11). The activity obtained for 10^−5 M of the control substance kinetin (K) was postulated as 100%.

[3] = system: Amaranthus caudatus cotyledon/hypocotyl explants; assay: Amaranthus bioassay (betacyanin content); format: cell-based, Amaranthus caudatus var. atropurpurea; conditions: for Activity (%) [10^−5 mol · l^−1 K = 100%]: at the concentration with highest activity, relative to 10^−5 M kinetin
Protocol: The standard Amaranthus bioassay was performed with the following modifications. The seeds of Amaranthus caudatus var. atropurpurea were surface-sterilised in 10% (w/v) N-chlorobenzenesulfonamide for 10 min and washed 5 times with deionized water. They were placed in 15 cm Petri dishes containing paper tissues saturated with deionized water. After 72 h of cultivation at 25° C. in darkness, the roots of the seedlings were cut off. The explants, consisting of two cotyledons and hypocotyls, were placed in 5 cm Petri dishes onto two layers of filtration paper soaked with 1 ml of the incubation medium containing 10 μmol of Na2HPO4—KH2PO4, pH 6.8, 5 μmol of tyrosine and the compound to be tested. There were 20 explants per dish. The procedure was carried out under green safe light in a darkroom. After 48 h of incubation at 25° C. in darkness, betacyanin was extracted by freezing the explants in 4 ml 3.33 μM acetic acid. The concentration of betacyanin was determined from the absorbances at 537 nm and 620 nm as follows: ΔA=A537nm−A620nm. The values ΔA were plotted against the concentration tested, are means of five replicates and the entire test was repeated at least twice. […] The compounds to be tested were dissolved in dimethylsulfoxide (DMSO) and the solution brought up to 10^−3M with distilled water.
From the obtained data, the concentration with the highest activity was selected for each compound tested. Relative activity of the compound at this concentration was calculated (Tab. 12). The activity obtained for 10^−5 M kinetin (K) was postulated as 100%.

AHK3 = target: T1, AHK3 (Arabidopsis thaliana, UniProt Q9C5U1); assay: Activation of cytokinin receptors (E. coli KMI001 beta-galactosidase reporter); format: cell-based; conditions: 28 h incubation; n.a. means no activation
T1 sequence (Q9C5U1 1-1036): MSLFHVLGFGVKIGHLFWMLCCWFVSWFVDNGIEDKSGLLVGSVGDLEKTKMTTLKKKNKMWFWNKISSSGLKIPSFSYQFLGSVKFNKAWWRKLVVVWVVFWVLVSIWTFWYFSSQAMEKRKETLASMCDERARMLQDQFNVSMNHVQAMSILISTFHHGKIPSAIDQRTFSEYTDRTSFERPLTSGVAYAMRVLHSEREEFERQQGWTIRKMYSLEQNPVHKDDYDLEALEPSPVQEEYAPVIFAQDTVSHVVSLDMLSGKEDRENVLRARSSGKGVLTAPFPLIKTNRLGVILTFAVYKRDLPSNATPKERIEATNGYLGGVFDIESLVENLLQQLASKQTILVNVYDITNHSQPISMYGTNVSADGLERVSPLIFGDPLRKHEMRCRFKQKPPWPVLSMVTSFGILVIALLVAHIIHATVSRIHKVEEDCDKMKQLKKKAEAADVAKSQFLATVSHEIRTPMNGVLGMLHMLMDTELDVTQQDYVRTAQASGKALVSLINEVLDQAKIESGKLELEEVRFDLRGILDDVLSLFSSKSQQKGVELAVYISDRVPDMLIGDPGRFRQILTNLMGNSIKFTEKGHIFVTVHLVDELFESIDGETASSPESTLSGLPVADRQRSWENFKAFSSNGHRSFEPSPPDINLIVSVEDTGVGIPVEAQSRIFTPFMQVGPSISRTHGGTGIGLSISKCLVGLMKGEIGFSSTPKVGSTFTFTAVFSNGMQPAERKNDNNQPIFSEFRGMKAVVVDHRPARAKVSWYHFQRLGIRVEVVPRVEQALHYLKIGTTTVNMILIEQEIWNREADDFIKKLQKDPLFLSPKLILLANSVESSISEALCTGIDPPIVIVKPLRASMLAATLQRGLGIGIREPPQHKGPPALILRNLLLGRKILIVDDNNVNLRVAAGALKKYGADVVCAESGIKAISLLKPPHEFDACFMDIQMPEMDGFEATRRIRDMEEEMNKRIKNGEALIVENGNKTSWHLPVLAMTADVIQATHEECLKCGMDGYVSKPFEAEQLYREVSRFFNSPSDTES
Protocol: Escherichia coli strains KMI001 harbouring the plasmid […]4 or […]3 were grown overnight at 25° C. in M9 media enriched with 0.1% casamino acids to OD600 1. The preculture was diluted 1:600 in 1 ml M9 medium containing 0.1% casamino acids and 1 μl stock solution of either the tested compound (10^-7 M-5×10^-5 M) or solvent control (DMSO, ethanol, methanol) were added. The cultures were further grown at 25° C. in microtiter plate, 200 μl per well. […] The cultures were centrifuged and 50 μl aliquots of the supernatant were transferred to microtiter plate containing 2 μl 150 mM 4-methyl umbelliferyl galactoside which was subsequently incubated for 1 h at 37° C. The reaction was stopped by adding 100 μl 0.2 M Na2CO3. […] The EC50 value, the compound concentration activating the receptor to 50%, was calculated from the obtained dose response curves. The values shown in Table 10 are means of three replicates and the entire test was repeated at least twice.

Structure (SMILES)	Senescent Cells (%) HCA passage 25 [1] [%]	Senescent Cells (%) HCA passage 50 [1] [%]	Senescent Cells (%) HCA passage 80 [1] [%]	Activity (%) [10^−5 mol · l^−1 K = 100%] [3]	pEC50 (AHK3)	other results
COc1cc(Nc2nc(Cl)nc3nc[nH]c23)ccc1O	4	6				
COc1cccc(Nc2nc(N)nc3nc[nH]c23)c1 [2-amino-6-(3-methoxyanilino)purine]	4	4	22			
Nc1nc(Nc2ccc(O)cc2)c2nc[nH]c2n1 [2-amino-(4-hydroanilino)purine]	3	4	21			
Nc1nc(Nc2ccc(O)cc2)c2[nH]cnc2n1 [2-amino-(4-hydroxyanilino)purine]	4	4	18			
COc1cccc(Nc2nc(Cl)nc3nc[nH]c23)c1 [2-chloro-6-(3-methoxyanilino)purine]	5	5	24			
COc1ccc(Nc2nc(Cl)nc3nc[nH]c23)cc1 [2-chloro-6-(4-methoxyanilino)purine]	4	3	26			
COc1cccc(Nc2nc(F)nc3nc[nH]c23)c1 [2-fluoro-6-(3-methoxyanilino)purine]	3	5	29			
Oc1ccc(Nc2nc(F)nc3nc[nH]c23)cc1 [2-fluoro-6-(4-hydroxyanilino)purine]	3	4	18			
CSc1nc(Nc2ccc(O)cc2)c2[nH]cnc2n1 [2-methylthio-6-(4-hydroxyanilino)purine]	4	6	34			
Fc1ccc(Nc2nc(Cl)nc3[nH]cnc23)cc1 [Compound 7]				104%		Activity (%) [10^−5 mol · l^−1 K = 100%] [2]: 112%
COc1ccccc1Nc1nc(Cl)nc2nc[nH]c12 [Compound 11]				110.3% and 121.7%		Activity (%) [10^−5 mol · l^−1 K = 100%] [2]: 109%; concentration with highest activity ([2]; fresh weight after four weeks): 10^−5 mol · l^−1; concentration with highest activity ([3]; 48 h): 10^−5 mol · l^−1
COc1ccc(Nc2nc(Cl)nc3[nH]cnc23)cc1 [Compound 13]					4.48	
Fc1ccc(Nc2nc(F)nc3[nH]cnc23)cc1 [Compound 46]				109%	4.65	Activity (%) [10^−5 mol · l^−1 K = 100%] [2]: 110.7%
COc1ccc(Nc2nc(F)nc3[nH]cnc23)cc1 [Compound 52]					4.72	Activity (%) [10^−5 mol · l^−1 K = 100%] [2]: 105%
Nc1nc(Nc2ccc(Cl)cc2)c2nc[nH]c2n1 [Compound 67]				141.7%	5.09	
Nc1nc(Nc2ccc(F)cc2)c2nc[nH]c2n1 [Compound 70]				136%	4.71	
COc1ccccc1Nc1nc(N)nc2[nH]cnc12 [Compound 74]				108%	4.54	
COc1ccc(Nc2nc(N)nc3[nH]cnc23)cc1 [Compound 76]					4.58	
Sc1nc(Nc2ccc(Cl)cc2)c2nc[nH]c2n1 [Compound 81]				122.9%	4.99	Activity (%) [10^−5 mol · l^−1 K = 100%] [2]: 115.7%

Reference: patent publication US8222260B2, “Substituted 6-anilinopurine derivatives as inhibitors of cytokinin oxidase/dehydrogenase and preparations containing these derivatives” (Univerzita Palackego V Olomouci, priority 2007, dated 2012)
